Where a name gives a salt, the structure may show the parent alone.
Tested on: HCT116
Conditions: 72 h
Outline: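 Four-parameter Hill fits gave IC50 and maximal efficacy. The data were CellTiter-Glo luminescence readings in HCT116 cells, normalized so that vehicle was 0% and positive control was -100%, with pattern correction afterwards.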

Row | SMILES | IC50 cell viability (ICRF193 0 nM) [µM] | IC50 cell viability (ICRF193 200 nM) [µM]
1 | CC(C)CN(C[C@@H](OP(=O)(O)O)[C@H](Cc1ccccc1)NC(=O)O[C@H]1CCOC1)S(=O)(=O)c1ccc(N)cc1 [Fosamprenavir (Calcium Salt)] | > 45.8 | > 45.8
2 | C[C@@H](O)[C@H]1C(=O)N2C(C(=O)OCOC(=O)C(C)(C)C)=C(SC3CN(C4=NCCS4)C3)[C@H](C)[C@H]12 [Tebipenem pivoxil] | > 45.8 | > 45.8
3 | NC(=O)N1c2ccccc2C=Cc2ccccc21 [Carbamazepine] | > 45.8 | > 45.8
4 | Cc1ccc(O)cc1 [p-Cresol] | > 45.8 | > 45.8
5 | OC(CCN1CCCCC1)(c1ccccc1)C1CC2C=CC1C2 (stereo not given) [Biperiden] | > 45.8 | > 45.8
6 | CCN(CC)CCOC(=O)C(Cc1cccc2ccccc12)CC1CCCO1 (stereo not given) [Nafronyl oxalate] | > 45.8 | > 45.8
7 | Cc1nnc(C(C)C)n1C1C[C@H]2CC[C@@H](C1)N2CC[C@H](NC(=O)C1CCC(F)(F)CC1)c1ccccc1 (stereo in doubt) [Maraviroc] | > 45.8 | > 45.8
8 | COP(=S)(OC)Oc1ccc(S(=O)(=O)N(C)C)cc1 [Famphur] | > 45.8 | > 45.8
9 | CC(C)(C)C(=O)OCOC(=O)[C@@H]1N2C(=O)[C@@H](/N=C/N3CCCCCC3)[C@H]2SC1(C)C [Pivmecillinam] | > 45.8 | > 45.8
10 | CC(=O)Nc1nnc(S(N)(=O)=O)s1 [Acetazolamide] | > 45.8 | > 45.8
11 | CCCC1O[C@@H]2C[C@H]3[C@@H]4CCC5=CC(=O)C=C[C@]5(C)[C@H]4[C@@H](O)C[C@]3(C)[C@]2(C(=O)CO)O1 (stereo not given in full) [Budesonide] | > 45.8 | > 45.8
12 | C=CCOc1ccc(CC(=O)O)cc1Cl [Alclofenac] | > 45.8 | > 45.8
13 | CCCCNc1cc(C(=O)O)cc(S(N)(=O)=O)c1Oc1ccccc1 [Bumetanide] | > 45.8 | > 45.8
14 | CC1=CCC(O)(C(C)C)CC1 (stereo not given) [Terpineol] | > 45.8 | > 45.8
15 | O=C(O)CNC(=O)CNC(=O)CNC(=O)CSC(=O)c1ccccc1 [Betiatide] | > 45.8 | > 45.8
16 | CNCc1ccc(-c2[nH]c3cc(F)cc4c3c2CCNC4=O)cc1 [Rucaparib] | > 45.8 | > 45.8
17 | NS(=O)(=O)c1cc(-c2nnn[nH]2)c(NCc2cccs2)cc1Cl [Azosemide] | > 45.8 | > 45.8
18 | CC(C)Oc1ccc2c(=O)c(-c3ccccc3)coc2c1 [Ipriflavone] | > 45.8 | > 45.8

Row | SMILES | IC50 cell viability (ICRF193 0 nM) [µM] | IC50 cell viability (ICRF193 200 nM) [µM]
19 | CC(=O)CCC1C(=O)N(c2ccccc2)N(c2ccccc2)C1=O [Kebuzone] | > 45.8 | > 45.8
20 | CCOc1ccc(C[C@H]2NC(=O)CCSSC[C@@H](C(=O)N3CCC[C@H]3C(=O)N[C@@H](CCCN)C(=O)NCC(N)=O)NC(=O)[C@H](CC(N)=O)NC(=O)[C@H]([C@@H](C)O)NC(=O)[C@H]([C@@H](C)CC)NC2=O)cc1 [Atosiban] | > 45.8 | > 45.8
21 | CO[C@H]1/C=C/O[C@@]2(C)Oc3c(C)c(O)c4c(O)c(c(/C=N/N5CCN(C6CCCC6)CC5)c(O)c4c3C2=O)NC(=O)/C(C)=C\C=C\[C@H](C)[C@H](O)[C@@H](C)[C@@H](O)[C@@H](C)[C@H](OC(C)=O)[C@@H]1C [Rifapentine] | > 45.8 | > 45.8
22 | OC[C@H]1O[C@@H](OCCc2ccc(O)cc2)[C@H](O)[C@@H](O)[C@@H]1O [Salidroside] | > 45.8 | > 45.8
23 | C[N+]1([O-])[C@@H]2CC(OC(=O)[C@H](CO)c3ccccc3)C[C@H]1[C@@H]1O[C@@H]12 (single isomer, unassigned; (-)) [(-)-Scopolamine N-oxide] | > 45.8 | > 45.8
24 | CCOC(=O)[C@H](CCc1ccccc1)N[C@@H](C)C(=O)N(CC(=O)O)C1Cc2ccccc2C1 [Delapril hydrochloride] | > 45.8 | > 45.8
25 | CN1C(C(=O)Nc2ccccn2)=C(O)c2ccccc2S1(=O)=O [Piroxicam] | > 45.8 | > 45.8
26 | CCCCCCCCCC(=O)O [Decanoic acid] | > 45.8 | > 45.8
27 | Oc1ccc(Cl)cc1Cc1ccccc1 [Clorophene] | > 45.8 | > 45.8
28 | C[C@]12CC[C@H]3[C@@H](CC[C@@]45O[C@@H]4C(O)=C(C#N)C[C@]35C)[C@@H]1CC[C@@H]2O [Trilostane] | > 45.8 | > 45.8
29 | CCC(C(=O)OCCN1CCOC(c2ccccc2)C1C)c1ccccc1 (stereo not given) [Fenbutrazate] | > 45.8 | > 45.8
30 | C[C@]12C=CC(=O)C=C1CC[C@@H]1[C@@H]2[C@@H](O)C[C@@]2(C)[C@H]1CC[C@]2(O)C(=O)COP(=O)(O)O [Prednisolone Phosphate (sodium salt)] | > 45.8 | > 45.8
31 | CO/N=C1\CN(c2nc3c(cc2F)c(=O)c(C(=O)O)cn3C2CC2)CC1CN (stereo not given) [Gemifloxacin mesylate] | > 45.8 | > 45.8
32 | O=C(O)CNC(=O)c1ccccc1I [2-Iodohippuric acid] | > 45.8 | > 45.8
33 | OC(CCN1CCCCC1)(c1ccccc1)C1CCCC1 (stereo not given) [Cycrimine Hydrochloride] | > 45.8 | > 45.8
34 | CS(=O)(=O)Nc1cc2occ(NC=O)c(=O)c2cc1Oc1ccccc1 [Iguratimod] | > 45.8 | > 45.8
35 | Cc1c(O)c(=O)ccn1C [Deferiprone] | > 45.8 | > 45.8

Second part, the molecule after the results:

Row | IC50 cell viability (ICRF193 0 nM) [µM] | IC50 cell viability (ICRF193 200 nM) [µM] | SMILES
36 | > 45.8 | > 45.8 | NCCCCCC(=O)O [Aminocaproic acid]
37 | > 45.8 | > 45.8 | Nc1c(I)cc(I)c(C(=O)N(CCC(=O)O)c2ccccc2)c1I [Iobenzamic acid]
38 | > 45.8 | > 45.8 | C[C@H](O)[C@H]1CC[C@H]2[C@@H]3CC[C@@H]4C[C@H](O)CC[C@]4(C)[C@H]3CC[C@]12C [Pregnandiol]
39 | > 45.8 | > 45.8 | N=C(N)NCCCC[C@@H]1NC(=O)CCSSC[C@@H](C(N)=O)NC(=O)[C@@H]2CCCN2C(=O)[C@H](Cc2c[nH]c3ccccc23)NC(=O)[C@H](CC(=O)O)NC(=O)CNC1=O [Eptifibatide]
40 | > 45.8 | > 45.8 | COc1cc2[nH]c(C)c(CCN3CCN(c4ccccc4)CC3)c2cc1OC [Oxypertine hydrochloride]
41 | > 45.8 | > 45.8 | CN1C(=O)CC(c2ccccc2)C1=O (stereo not given) [Phensuximide]
42 | > 45.8 | > 45.8 | O=C(NN1CCCC1)NS(=O)(=O)c1ccc(Cl)cc1 [Glyclopyramide]
43 | > 45.8 | > 45.8 | Cc1c(N(C)CS(=O)(=O)O)c(=O)n(-c2ccccc2)n1C [Dipyrone]
44 | > 45.8 | > 45.8 | O=C(NCCN1CCOCC1)c1ccc(Cl)cc1 [Moclobemide]
45 | > 45.8 | > 45.8 | O.O.O=C(O)c1cc(O)c2c(c1)[O][Bi][O]2 [Bismuth(III) gallate basic hydrate]
46 | > 45.8 | > 45.8 | Cc1onc(-c2c(F)cccc2Cl)c1C(=O)N[C@@H]1C(=O)N2[C@@H]1SC(C)(C)[C@@H]2C(=O)O [Flucloxacillin sodium]
47 | > 45.8 | > 45.8 | NC1CCN(c2nc3c(cc2F)c(=O)c(C(=O)O)cn3-c2ccc(F)cc2F)C1 (stereo not given) [Tosufloxacin toluenesulfonic acid]
48 | > 45.8 | > 45.8 | N=C(N)NCCC[C@@H](N)C(=O)N[C@@H](CCCNC(=N)N)C(=O)N1CCC[C@H]1C(=O)N1C[C@H](O)C[C@H]1C(=O)NCC(=O)N[C@@H](Cc1cccs1)C(=O)N[C@@H](CO)C(=O)N1Cc2ccccc2C[C@@H]1C(=O)N1[C@H](C(=O)N[C@@H](CCCNC(=N)N)C(=O)O)C[C@@H]2CCCC[C@@H]21 [Icatibant]
49 | > 45.8 | > 45.8 | Cc1ccc(/C=C2/C(=O)C3(C)CCC2C3(C)C)cc1 (stereo not given) [ENZACAMENE]
50 | > 45.8 | > 45.8 | S=P(N1CC1)(N1CC1)N1CC1 [ThioTEPA]
51 | > 45.8 | > 45.8 | CCCN(CC)C(CC)C(=O)Nc1c(C)cccc1C (stereo not given) [Etidocaine]
52 | > 45.8 | > 45.8 | Cc1ncc(CO)c(CO)c1O [Pyridoxine]
53 | > 45.8 | > 45.8 | CCCc1ccc(C(=O)O)cc1 [4-Propylbenzoic acid]
54 | > 45.8 | > 45.8 | CCCCC[C@H](O)/C=C/[C@@H]1[C@H]2C/C(=C/CCCC(=O)O)O[C@H]2C[C@H]1O [Epoprostenol sodium]
55 | > 45.8 | > 45.8 | Cc1ccc(C(=O)Oc2ccc(C(O)CNC(C)(C)C)cc2OC(=O)c2ccc(C)cc2)cc1 (stereo not given) [Bitolterol]
56 | > 45.8 | > 45.8 | O=C1/C(=C2\Nc3ccc(S(=O)(=O)O)cc3C2=O)Nc2ccc(S(=O)(=O)O)cc21 [Indigo carmine]
57 | > 45.8 | > 45.8 | CC(CCc1ccccc1)NCC(O)c1ccc(O)c(C(N)=O)c1 (stereo not given) [Labetalol HCl]
58 | > 45.8 | > 45.8 | CN(CC(=O)N1CCOCC1)Cc1c(Cl)cccc1NC(=O)c1ccccc1 [Fominoben hydrochloride]
59 | > 45.8 | > 45.8 | CC(C)NCCCC1(C(N)=O)c2ccccc2-c2ccccc21 [Indecainide]
60 | > 45.8 | > 45.8 | CC[C@H]1[C@@H](O)[C@@H]2[C@H](CC[C@]3(C)[C@@H]([C@H](C)CCC(=O)O)CC[C@@H]23)[C@@]2(C)CC[C@@H](O)C[C@@H]12 [INT-747 (Obeticholic acid)]

Source: the supplement of paper PMC12137928
